Data published in article PMC8133782, “Identification of a series of hair-cell MET channel blockers that protect against aminoglycoside-induced ototoxicity” (JCI Insight, 2021).

Tests used:
Format in all cases: cell-based
[1] = molecular target: T1, mechano-electrical transducer (MET) channel (pore subunit TMC1) (Mus musculus, UniProt Q8R4P5); test: whole-cell patch clamp of MET currents in OHCs, fractional block at […] (approximately […])
T1 construct: native MET channel in early postnatal CD-1 mouse outer hair cells
T1 sequence (Q8R4P5 1-757): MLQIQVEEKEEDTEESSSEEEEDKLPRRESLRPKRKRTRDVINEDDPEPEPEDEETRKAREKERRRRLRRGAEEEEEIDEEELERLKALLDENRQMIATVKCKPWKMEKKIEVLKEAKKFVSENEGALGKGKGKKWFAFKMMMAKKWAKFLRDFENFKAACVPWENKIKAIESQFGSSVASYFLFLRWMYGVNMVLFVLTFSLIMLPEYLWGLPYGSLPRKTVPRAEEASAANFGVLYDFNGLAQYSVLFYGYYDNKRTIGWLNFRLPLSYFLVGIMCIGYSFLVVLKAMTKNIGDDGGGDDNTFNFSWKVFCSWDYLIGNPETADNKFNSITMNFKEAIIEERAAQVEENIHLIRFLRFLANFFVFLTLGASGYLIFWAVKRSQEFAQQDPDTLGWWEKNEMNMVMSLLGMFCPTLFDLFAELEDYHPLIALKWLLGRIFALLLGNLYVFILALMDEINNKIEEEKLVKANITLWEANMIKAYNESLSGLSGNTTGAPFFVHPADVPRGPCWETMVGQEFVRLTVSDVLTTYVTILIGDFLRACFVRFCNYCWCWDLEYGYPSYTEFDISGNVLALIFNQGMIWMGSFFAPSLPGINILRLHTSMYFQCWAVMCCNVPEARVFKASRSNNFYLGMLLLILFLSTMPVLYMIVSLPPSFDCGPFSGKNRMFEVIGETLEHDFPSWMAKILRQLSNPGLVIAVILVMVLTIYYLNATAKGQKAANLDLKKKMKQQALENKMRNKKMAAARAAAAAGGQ

[2] = molecular target: T1, mechano-electrical transducer (MET) channel (pore subunit TMC1); test: whole-cell patch clamp of MET currents in OHCs, fractional block at […]
[3] = molecular target: T1, mechano-electrical transducer (MET) channel (pore subunit TMC1); test: whole-cell patch clamp of MET currents in OHCs, fractional block at […], partially reversible

In the case of `C(=C\c1ccccc1)/CN1CCC(c2nc3ccccc3[nH]2)CC1` [UoS-3606], the inhibition at 50 µM [1] is reported as ~80%.
Work on `O=C(CN1CCC(c2nc3ccccc3[nH]2)CC1)Nc1cccc([N+](=O)[O-])c1` [UoS-3607] yielded an inhibition at 50 µM [2] of ~70%.
For `O=C(Nc1ccc(OC(F)(F)F)cc1)C1CCN(Cc2nc3ccccc3[nH]2)CC1` [UoS-8052], the inhibition at 50 µM [3] was ~70%.
